Experimental data taken from patent US20240264164A1, “DETERGENTS AND METHODS” (OXFORD UNIVERSITY INNOVATION LIMITED, priority 2021, published 2024).

Experiments:
membrane protein AqpZ [1] = biological target: T1, membrane protein AqpZ (Escherichia coli, UniProt P60844); assay: nano-electrospray ionization mass spectrometry of AqpZ in detergent (FIG. 9); parameters: made in house; host or cells: bacterial culture (LB broth, ampicillin); details: nESI, Q Exactive
Experimental: The samples were analysed using a Q-Exactive mass spectrometer using the following instrumental parameters: • Injection flatapole: 7.9 V • Inter flatapole lens: 6.9 V • Bent flatapole: 5.9 V • Transfer multipole: 4 V • Capillary voltage: 1.2 kV • Source temperature: 100° C. • Voltage applied to the C-trap entrance lens: 5.8 V • In-source trapping voltage: 0-200 V • Higher-energy collisional dissociation (HCD) cell voltage: 100-200 V • HCD cell pressure: 9×10^−10 mBar • Noise level parameter: 3 • Microscans: 10 • Resolution: 17,500
The suitability of the hybrid detergent in nano-electrospray ionization was investigated using a Q Exactive mass spectrometer. The results are shown in FIG. 9, along with results obtained using DDM and C8E4.

membrane protein AqpZ [2] = biological target: T1, membrane protein AqpZ; assay: Stability of AqpZ in detergent solution after extraction from native membrane and IMAC; parameters: made in house; details: extraction with 1% w/v detergent solution, IMAC purification
Experimental: Different solutions of the membrane protein AqpZ were prepared by extracting the protein from its native membrane using a 1% w/v detergent solution and then purifying the samples using IMAC. The following solutions were prepared: one containing the hybrid detergent, one containing DDM, one containing C8E4 and one containing a mixture of C8E4 and DDM. AgpZ precipitated from the solutions containing C8E4, even when DDM was also present.

T1 sequence (P60844 whole entry): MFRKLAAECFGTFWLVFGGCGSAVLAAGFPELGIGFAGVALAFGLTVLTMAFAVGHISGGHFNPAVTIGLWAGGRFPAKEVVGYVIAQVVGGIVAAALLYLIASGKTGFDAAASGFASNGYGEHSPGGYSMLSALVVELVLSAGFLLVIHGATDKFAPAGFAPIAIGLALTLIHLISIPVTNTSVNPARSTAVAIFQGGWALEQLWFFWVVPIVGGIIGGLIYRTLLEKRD

Row | SMILES | lipid-bound states of AqpZ detected (membrane protein AqpZ [1]) | stability of AqpZ in detergent solution (membrane protein AqpZ [2]) | level of delipidation of AqpZ (membrane protein AqpZ [1])
1 | CCCCCCCCCCCCOCC(COCCOCCOCCOCCO)Oc1ccc(OCCOC2OC(CO)C(C3OC(CO)C(O)C(O)C3O)C(O)C2O)cc1 (stereo not drawn) | detected | stable | 
2 | CCCCCCCCOCCOCCOCCOCCO [C8E4, tetraethylene glycol monooctyl ether] |  | precipitated | fully delipidating
3 | CCCCCCCCCCCCO[C@@H]1O[C@H](CO)[C@@H](O[C@H]2O[C@H](CO)[C@@H](O)[C@H](O)[C@H]2O)[C@H](O)[C@H]1O [DDM, n-dodecyl-β-D-maltoside] | detected |  | relatively low levels of delipidation
